The structures appear in SMILES notation.

The values that follow come from patent US20100285141A1, “COMPOSITIONS AND METHODS FOR ENHANCING THE ACTIVITY OF PODOPHYLLOTOXIN” (DO-COOP TECHNOLOGIES LTD., priority 2008, published 2010).

In assay [1] the test system is LnCap prostate cancer cells. Nature of the assay: Etoposide in Neowater or deionized water, surviving cells by XTT dye uptake, LnCap. The note with it: 24 hours incubation, FIG. 1A. The class given is cell-based, human. The source says:
(§1) Two human prostate cancer cell lines were examined—LnCap and PC3.
For orientation: Formazan colour is commonly taken as a measure of viable cells.

The subject of assay [2] is PC3 prostate cancer cells. Nature of the assay: Etoposide in Neowater or deionized water, surviving cells by XTT dye uptake, PC3. The format is cell-based, human. The following applies: PC3, 24 hours incubation, FIG. 1B.
Description: as §1

`COc1cc([C@@H]2c3cc4c(cc3[C@@H](O[C@@H]3O[C@@H]5CO[C@@H](C)O[C@H]5[C@H](O)[C@H]3O)[C@H]3COC(=O)[C@H]23)OCO4)cc(OC)c1O` [etoposide, Etoposide]: the “proliferation of cancer cells (cell growth)” value in assay [1] and in assay [2] was “dose-dependent decrease” in each case.
